The values that follow are results of earlier work, collected in paper PMC6311893, “Computational prediction of plasma protein binding of cyclic peptides from small molecule experimental data using sparse modeling techniques” (BMC Bioinformatics, 2018).

Like-named read-outs stand apart in the source and are kept apart here.

The subject of this series is plasma protein. Conditions: cited from earlier work.
[1] abbreviates: fraction bound to plasma protein, small molecule dataset, sheet 1-SM, ref Ingle et al.
[2] abbreviates: fraction bound to plasma protein, small molecule dataset, sheet 1-SM, Set Dtr, ref Ingle et al.
[3] abbreviates: fraction bound to plasma protein, small molecule dataset, sheet 1-SM (Set Dte = test, Dtr = training), ref Ingle et al.

As for `CCC(OC)C(=O)NC1C(=O)N2C1SC(C)(C)C2C(=O)O` (centres unmarked) [penicillin9], under setting [1], the “PPB (fb)” value is reported as 0.2.

Consider `CN(C)CCOc1ccc(/C(=C(/CCCl)c2ccccc2)c2ccccc2)cc1` [toremifene], for which, under setting [2], the “PPB (fb)” value was 0.99.

Turning to `CC(C)(C)c1ccc(C(O)CCCN2CCC(C(O)(c3ccccc3)c3ccccc3)CC2)cc1` (centres unmarked) [terfenadine], the “PPB (fb)” value under setting [1] is on record as 0.84.

On to `C[C@@H]1CN(c2c(F)c(N)c3c(=O)c(C(=O)O)cn(C4CC4)c3c2F)C[C@H](C)N1` [Sparfloxacin], for which the “PPB (fb)” value under setting [1] is on record as 0.45.

For `CC(C)(C)NCC(O)COc1cccc2c1SCCC2` (centres unmarked) [tertatolol], the “PPB (fb)” value under setting [3] is 0.95.

Regarding `COc1cc(NS(=O)(=O)c2ccc(N)cc2)nc(OC)n1` [sulfadimethoxine], the “PPB (fb)” value under setting [1] is on record as 0.95.

As for `CCOC(=O)[C@H](CCc1ccccc1)N[C@H]1CCCN2CCC[C@@H](C(=O)O)N2C1=O` [cilazapril], the “PPB (fb)” value under setting [3] is 0.25.

As for `O=C(O)C1N=C(c2ccccc2)c2cc(Cl)ccc2NC1=O` (centres unmarked) [clorazepic acid], for the setting “plasma”, the “PPB (fb)” value was 0.91.

`CCOC(=O)Nc1ccc2c(c1)N(C(=O)CCN1CCOCC1)c1ccccc1S2` [moracizine]: the “PPB (fb)” value under setting [1] is on record as 0.88.

Consider `CNC[C@H](O)c1cccc(O)c1` [phenylephrine], for which the “PPB (fb)” value under setting [3] is listed as 0.51.

For `Nc1nnc(-c2cccc(Cl)c2Cl)c(N)n1` [lamotrigine], under setting [1], the “PPB (fb)” value was 0.55.

For `CN1CCCC(n2nc(Cc3ccc(Cl)cc3)c3ccccc3c2=O)CC1` (centres unmarked) [Azelastine], the “PPB (fb)” value under setting [2] is on record as 0.85.

As to `CC(=O)O[C@@]12CO[C@@H]1C[C@H](O)[C@@]1(C)C(=O)[C@H](O)C3=C(C)[C@@H](OC(=O)[C@H](O)[C@@H](NC(=O)OC(C)(C)C)c4ccccc4)C[C@@](O)([C@@H](OC(=O)c4ccccc4)[C@H]21)C3(C)C` [Docetaxel], the “PPB (fb)” value under setting [3] is given as 0.96.

ethyl-biscoumacetate: for the setting “plasma”, the “PPB (fb)” value is on record as 0.9.

For `CCc1nc(N)nc(N)c1-c1ccc(Cl)cc1` [Pyrimethamine], the “PPB (fb)” value under setting [2] is 0.89.

Take `CC(=O)Nc1c(I)c(NC(C)=O)c(I)c(C(=O)O)c1I` [Diatrizoic Acid (Amidotrizoate)]: the “PPB (fb)” value under setting [3] is listed as 0.02.

For the compound `OC(CCN1CCCCC1)(c1ccccc1)C1CC2C=CC1C2` (centres unmarked) [Biperiden], the “PPB (fb)” value under setting [2] was 0.93.

For the compound `Cc1ccccc1N1C(=O)c2cc(S(N)(=O)=O)c(Cl)cc2NC1C` (centres unmarked) [Metolazone], the “PPB (fb)” value under setting [2] is 0.95.

As for `CN1CCN(C(c2ccccc2)c2ccc(Cl)cc2)CC1` (centres unmarked) [chlorcyclizine], the “PPB (fb)” value under setting [3] was 0.87.

In the case of `O=C1CCc2cc(OCCCCc3nnnn3C3CCCCC3)ccc2N1` [cilostazol], the “PPB (fb)” value under setting [3] is reported as 0.96.

On to `CNCCCC1c2ccccc2C=Cc2ccccc21` [protriptyline], for which the “PPB (fb)” value under setting [3] is reported as 0.92.

As to `OCCN1CCN(CCCN2c3ccccc3C=Cc3ccccc32)CC1` [opipramol], the “PPB (fb)” value under setting [1] is recorded as 0.9.

With `OCCN1CCN(CCCN2c3ccccc3Sc3ccc(C(F)(F)F)cc32)CC1` [fluphenazine], the “PPB (fb)” value under setting [1] is 0.95.

Regarding `O=C(O)C(=O)O` [oxalic acid], the “PPB (fb)” value under setting [1] is 0.

With `CCCC(CC)C(CCC)C(=O)NC1C(=O)N2C1SC(C)(C)C2C(=O)O` (centres unmarked) [penicillin4], the “PPB (fb)” value under setting [1] is reported as 0.93.

Turning to `CC(=O)NC[C@H]1CN(c2ccc(N3CCOCC3)c(F)c2)C(=O)O1` [Linezolid], under setting [2], the “PPB (fb)” value is 0.31.

With `C#C[C@]1(O)CC[C@H]2[C@@H]3CCc4cc(OS(=O)(=O)O)ccc4[C@H]3CC[C@@]21C` [Ethinylestradiol-3-Sulfate], the “PPB (fb)” value (plasma) is recorded as 0.99.

Consider `c1ccc2c(c1)Sc1ccccc1N2CC1CN2CCC1CC2` (centres unmarked) [mequitazine], for which the “PPB (fb)” value under setting [1] is listed as 0.9.

For `CCCCCNC(=N)N/N=C/c1c[nH]c2ccc(OC)cc12` [Tegaserod], under setting [1], the “PPB (fb)” value is reported as 0.98.

Turning to `CCOC(=O)c1c(N)sc2c1CCN(Cc1ccccc1)C2` [Tinoridine], under setting [1], the “PPB (fb)” value is recorded as 0.92.

For `C[C@]12C=CC(=O)C=C1C(Cl)=C[C@@H]1[C@@H]2[C@@H](O)C[C@@]2(C)[C@H]1CC[C@]2(O)C(=O)CO` [cloprednol], the “PPB (fb)” value under setting [3] is 0.8.

For the compound `CCn1cc(C(=O)O)c(=O)c2ccc(C)nc21` [nalidixic acid], under setting [1], the “PPB (fb)” value was 0.94.

On to `CNS(=O)(=O)CCc1ccc2[nH]cc(C3CCN(C)CC3)c2c1` [Naratriptan], for which the “PPB (fb)” value under setting [3] is on record as 0.29.

On to `COC(CC(=O)NC1C(=O)N2C1SC(C)(C)C2C(=O)O)c1ccc(Br)s1` (centres unmarked) [penicillin74], for which the “PPB (fb)” value under setting [1] was 0.9.

On to `COc1ccc(C(N)C(=O)NC2C(=O)N3C2SC(C)(C)C3C(=O)O)cc1` (centres unmarked) [penicillin34], for which the “PPB (fb)” value under setting [1] is 0.38.

In the case of `C[C@]12COC(=O)C[C@@H]1CC[C@@H]1[C@@H]2CC[C@@]2(C)[C@H]1CC[C@]2(C)O` [oxandrolone], the “PPB (fb)” value (plasma) was 0.95.

Consider `CCC(C)C1OC2(CCC1C)CC1CC(C/C=C(\C)C(OC3CC(OC)C(OC4CC(OC)C(O)C(C)O4)C(C)O3)C(C)/C=C/C=C3\COC4C(O)C(C)=CC(C(=O)O1)C34O)O2` (centres unmarked) [ivermectin], for which the “PPB (fb)” value (plasma) is recorded as 0.93.

Regarding `CCn1cc(C(=O)O)c(=O)c2cc(F)c(N3CCNCC3)nc21` [Enoxacin], under setting [2], the “PPB (fb)” value was 0.26.

Regarding `CO[C@H]1[C@@H](O)C[C@H](O[C@H]2[C@@H](O)C[C@H](O[C@H]3[C@@H](O)C[C@H](O[C@H]4CC[C@@]5(C)[C@H](CC[C@@H]6[C@@H]5C[C@@H](O)[C@]5(C)[C@@H](C7=CC(=O)OC7)CC[C@]65O)C4)O[C@@H]3C)O[C@@H]2C)O[C@@H]1C` [metildigoxin], the “PPB (fb)” value (plasma) is listed as 0.15.

With `NS(=O)(=O)c1cc2c(cc1C(F)(F)F)NCNS2(=O)=O` [hydroflumethiazide], the “PPB (fb)” value under setting [1] is 0.75.

On to `O=C(O)c1cn(-c2ccc([N+](=O)[O-])cc2)c2cc(N3CCNCC3)c(F)cc2c1=O` [7c(p-NO2)], for which the “PPB (fb)” value under setting [3] is 0.3.

For `CC1(C)SC2C(NC(=O)C(O)c3ccccc3)C(=O)N2C1C(=O)O` (centres unmarked) [penicillin37], the “PPB (fb)” value under setting [1] is on record as 0.53.

As for `NC[C@H]1CC[C@H](C(=O)O)CC1` [tranexamic acid], the “PPB (fb)” value under setting [2] is reported as 0.03.

In the case of `CCC[S+]([O-])c1ccc2[nH]c(NC(=O)OC)nc2c1` (centres unmarked) [albendazole sulfoxide], under “plasma”, the “PPB (fb)” value was 0.7.

Consider `COc1ccnc(C[S+]([O-])c2nc3ccc(OC(F)F)cc3[nH]2)c1OC` (centres unmarked) [Pantoprazole], for which, under setting [2], the “PPB (fb)” value is 0.98.

For the compound `CC(C)=CCN1CCC2(C)c3cc(O)ccc3CC1C2C` (centres unmarked) [Pentazocine], under “plasma”, the “PPB (fb)” value is 0.61.

Take `CC[C@H]1OC(=O)[C@H](C)[C@@H](O[C@H]2C[C@@](C)(OC)[C@@H](O)[C@H](C)O2)[C@H](C)[C@@H](O[C@@H]2O[C@H](C)C[C@H](N(C)C)[C@H]2O)[C@](C)(O)C[C@@H](C)/C(=N\OCOCCOC)[C@H](C)[C@@H](O)[C@]1(C)O` [roxithromycin]: the “PPB (fb)” value under setting [3] is reported as 0.78.

In the case of `O=C(O)c1cc(=O)c2c(OCC(O)COc3cccc4oc(C(=O)O)cc(=O)c34)cccc2o1` [cromolyn], the “PPB (fb)” value under setting [3] is on record as 0.68.

As for `CCOC(=O)[C@H](CCc1ccccc1)N[C@@H](C)C(=O)N1C(=O)N(C)C[C@H]1C(=O)O` [imidapril], the “PPB (fb)” value under setting [1] is recorded as 0.2.

As to `CCN(C(C)=O)c1cccc(-c2ccnc3c(C#N)cnn23)c1` [Zaleplon], the “PPB (fb)” value (plasma) is given as 0.6.

Consider `CC(Oc1ccc(Cl)cc1)C(=O)NC1C(=O)N2C1SC(C)(C)C2C(=O)O` (centres unmarked) [penicillin42], for which the “PPB (fb)” value under setting [1] is listed as 0.92.

For `CCCCCCCCCCC[C@@H](C[C@@H]1OC(=O)[C@H]1CCCCCC)OC(=O)[C@H](CC(C)C)NC=O` [orlistat], the “PPB (fb)” value under setting [1] is 0.99.

Consider `CCOC(=O)C(C)(C)Oc1ccc(Cl)cc1` [clofibrate], for which, under setting [3], the “PPB (fb)” value was 0.96.

With `CC(C)C[C@H]1C(=O)N2CCC[C@H]2[C@]2(O)O[C@](NC(=O)[C@@H]3C=C4c5cccc6[nH]c(Br)c(c56)C[C@H]4N(C)C3)(C(C)C)C(=O)N12` [bromocriptine], the “PPB (fb)” value under setting [3] is listed as 0.95.

In the case of `COC(C(=O)NC1C(=O)N2C1SC(C)(C)C2C(=O)O)c1ccccc1` (centres unmarked) [penicillin38], the “PPB (fb)” value under setting [1] is 0.62.

Regarding Nicardipine, under “plasma”, the “PPB (fb)” value is 0.98.

For the compound `CC(=O)OCC(CCn1cnc2cnc(N)nc21)COC(C)=O` [famciclovir], under setting [1], the “PPB (fb)” value is given as 0.15.

`CC(C)(Oc1ccc(Cl)cc1)C(=O)O` [clofibric acid]: under setting [3], the “PPB (fb)” value is 0.98.

Consider `COc1ccc2c(c1)N(C[C@H](C)CN(C)C)c1ccccc1S2` [methotrimeprazine], for which the “PPB (fb)” value under setting [1] was 0.98.

For `O=C(O)CCCC[C@@H]1SC[C@@H]2NC(=O)N[C@@H]21` [biotin], the “PPB (fb)” value under setting [3] is 0.2.

Regarding `Cc1cc(C(=O)NCCc2ccc(S(=O)(=O)NC(=O)NN3CCCCCC3)cc2)no1` [glisoxepide], under setting [1], the “PPB (fb)” value is reported as 0.93.

Take `Cn1c(=O)c2c(ncn2CCCNCC(O)c2cc(O)cc(O)c2)n(C)c1=O` (centres unmarked) [reproterol]: the “PPB (fb)” value under setting [3] is reported as 0.5.

With `Cc1ccnc(NS(=O)(=O)c2ccc(N)cc2)n1` [sulfamerazine], the “PPB (fb)” value under setting [1] was 0.85.

Turning to `CN1Cc2c(N)cccc2C(c2ccccc2)C1` (centres unmarked) [Nomifensine], under setting [2], the “PPB (fb)” value is reported as 0.63.

With `CN1C(=O)CN=C(C2=CCCCC2)c2cc(Cl)ccc21` [tetrazepam], under “plasma”, the “PPB (fb)” value is listed as 0.7.

Take `CCN(CC)C(=O)C1(c2ccccc2)CC1CN` (centres unmarked) [milnacipran]: the “PPB (fb)” value under setting [3] was 0.13.

With `C[C@@H]1[C@H](O)[C@@H](C)/C=C/C=C/C=C/C=C/C=C/C=C/C=C/[C@H](O[C@@H]2O[C@H](C)[C@@H](O)[C@H](N)[C@@H]2O)C[C@@H]2O[C@](O)(C[C@@H](O)C[C@@H](O)[C@H](O)CC[C@@H](O)C[C@@H](O)CC(=O)O[C@H]1C)C[C@H](O)[C@H]2C(=O)O` [amphotericin-B], the “PPB (fb)” value under setting [3] was 0.94.

As for `N=C(N)NC(=O)c1cnn(-c2cccc3ncccc23)c1C1CC1` [zoniporide], under setting [2], the “PPB (fb)” value is 0.5.

`O=C(O)c1cn(-c2ccccc2C(F)(F)F)c2cc(N3CCNCC3)c(F)cc2c1=O` [3a(o-CF3)]: the “PPB (fb)” value under setting [3] is given as 0.38.

`Cc1nccn1CC1CCc2c(c3ccccc3n2C)C1=O` (centres unmarked) [Ondansetron]: the “PPB (fb)” value under setting [2] is reported as 0.73.

As to `NC(=O)N1c2ccccc2C=Cc2ccccc21` [carbamazepine], the “PPB (fb)” value under setting [3] is on record as 0.75.
